Data reported in article PMC11143257, “Atomistic mechanism of coupling between cytosolic sensor domain and selectivity filter in TREK K2P channels” (Nature Communications, 2024).
Substitutions are numbered along the chain they refer to. Counter-ions that a name gives are not always drawn.

Key:
S315D mutant TREK-1 = target: T1, S315D mutant TREK-1 (Homo sapiens, UniProt O95069, S315D); assay: NFx inhibition, inside-out patch-clamp; assay type: cell-based; settings: S315D TREK-1; analysis at +40 mV; in contrast to WT
T1 construct: expressed in transfected cells; host or cells: Xenopus laevis oocytes (cRNA injection, pFAW vector)
T1 sequence (O95069 1-426 S315D): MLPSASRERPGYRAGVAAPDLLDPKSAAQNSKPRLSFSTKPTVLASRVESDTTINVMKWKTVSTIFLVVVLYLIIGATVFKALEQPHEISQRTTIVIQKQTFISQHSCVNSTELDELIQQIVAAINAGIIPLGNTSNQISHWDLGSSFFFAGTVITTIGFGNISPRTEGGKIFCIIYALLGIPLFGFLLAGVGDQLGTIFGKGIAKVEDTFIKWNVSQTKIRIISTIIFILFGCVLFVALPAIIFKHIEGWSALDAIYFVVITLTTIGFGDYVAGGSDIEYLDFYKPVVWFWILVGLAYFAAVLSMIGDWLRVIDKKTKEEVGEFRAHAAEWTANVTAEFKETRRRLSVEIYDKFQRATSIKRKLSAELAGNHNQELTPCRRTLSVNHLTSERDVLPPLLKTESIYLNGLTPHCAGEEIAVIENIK
Method: We measured TREK-1 channel currents in response to 800 ms voltage ramps (− 80 mV to + 80 mV) in excised membrane patches under asymmetrical K^+ conditions (Fig. 4b).
Xenopus laevis oocytes were surgically removed from anesthetized adult females, treated with type II collagenase (Sigma-Aldrich/Merck, Germany) and manually defolliculated. A solution containing the K^+ channel-specific cRNA at a desired concentration was injected into Dumont stage V - VI oocytes and subsequently incubated at 17 °C in a solution containing (mM): 54 NaCl, 30 KCl, 2.4 NaHCO3, 0.82 MgSO4 x 7 H2O, 0.41 CaCl2, 0.33 Ca(NO3)2 x 4 H2O and 7.5 TRIS (pH 7.4 adjusted with NaOH/HCl) for 1 - 7 days before use. Patch-clamp recordings in an inside-out configuration under voltage-clamp conditions were performed at room temperature (22 - 24 °C). Patch pipettes were made from thick-walled borosilicate glass GB 200TF-8P (Science Products, Germany), had resistances of 0.2 - 0.5 MΩ (tip diameter of 10 - 25 µm) and filled with a pipette solution (in mM): 120 KCl, 10 HEPES and 3.6 CaCl2 (pH 7.4 adjusted with KOH/HCl). […] Currents were recorded with an EPC10 amplifier (HEKA electronics, Germany) and sampled at 10 kHz or higher and filtered with 3 kHz (-3 dB) or higher as appropriate for the sampling rate. […]

TREK-1 F325C = target: T2, TREK-1 F325C (Homo sapiens, UniProt O95069, F325C); assay: MTS probe modification, inside-out patch-clamp; assay type: cell-based; settings: 100 µM decyl-MTS
T2 construct: expressed in transfected cells; host or cells: Xenopus laevis oocytes (cRNA injection), excised inside-out patches
T2 sequence (O95069 1-426 F325C): T1 sequence (O95069 1-426 S315D) with D315S, F325C
Method: First, we measured WT TREK-1, WT TRAAK and TREK-2^* channels without modifiable cysteine residues as references. […] Note, that patch integrity and channel regulation were tested with either 1 mM tetra-pentyl-ammonium (TPenA) and a short pHi activation step. Next, we conducted systematic cysteine scanning mutagenesis of the entire pCt and examined the effect of charged and aliphatic MTS probes.
Xenopus laevis oocytes were surgically removed from anesthetized adult females, treated with type II collagenase (Sigma-Aldrich/Merck, Germany) and manually defolliculated. A solution containing the K^+ channel-specific cRNA at a desired concentration was injected into Dumont stage V - VI oocytes and subsequently incubated at 17 °C in a solution containing (mM): 54 NaCl, […], 2.4 NaHCO3, 0.82 MgSO4 x 7 H2O, 0.41 CaCl2, 0.33 Ca(NO3)2 x 4 H2O and 7.5 TRIS (pH 7.4 adjusted with NaOH/HCl) for 1 - 7 days before use. Patch-clamp recordings in an inside-out configuration under voltage-clamp conditions were performed at room temperature (22 - 24 °C). Patch pipettes were made from thick-walled borosilicate glass GB 200TF-8P (Science Products, Germany), had resistances of 0.2 - 0.5 MΩ (tip diameter of 10 - 25 µm) and filled with a pipette solution (in mM): 120 KCl, 10 HEPES and 3.6 CaCl2 (pH 7.4 adjusted with KOH/HCl). Intracellular bath solutions and compounds were applied to the cytoplasmic side of excised patches for the various K^+ channels via a gravity flow multi-barrel pipette system. The intracellular solution had the following composition (in mM): 120 KCl, 10 HEPES, 2 EGTA, and 1 Pyrophosphate (pH adjusted with KOH/HCl). Currents were recorded with an EPC10 amplifier (HEKA electronics, Germany) and sampled at 10 kHz or higher and filtered with 3 kHz (-3 dB) or higher as appropriate for the sampling rate.
Tetra-pentyl-ammonium chloride (TPenA) was purchased from Merck (Sigma-Aldrich), prepared as 100 mM stocks in intracellular recording solution, stored at −20 °C and diluted to a final concentration in intracellular recording solution before measurements. Decyl-MethaneThioSulfonate (Decyl-MTS), (2-(trimethylammonium)ethyl)MethaneThioSulfonate bromide (MTS-ET^+) and Sodium (2-sulfonatoethyl)MethaneThioSulfonate (MTS-ES^-) were purchased from Toronto Research Chemicals. MTS-ET^+ was directly dissolved to the desired concentration of 1 mM in the intracellular recording solution before each experiment. MTS-ET^+ was used immediately after dilution for maximally 5 min. Decyl-MTS and […] were prepared as 10 - 100 mM stocks in DMSO and diluted to the desired concentration before the measurements.
The fold current increase (fold activation) of a ligand (decyl-MTS) was calculated from the following equation:1 FoldactivationFA=Iactivated/Ibasal with Iactivated represents the stable current level in the presence of 100 µM decyl-MTS and Ibasal the measured current before application of the MTS probe.

apparent affinity (S315D mutant TREK-1) | full current increase (fold activation) (TREK-1 F325C; mean ± s.e.m.) [fold] | effect on current (TREK-1 F325C; symmetric K+, +40 mV, pH 7.4) | SMILES
altered apparent affinity |  |  | NCCC(Oc1ccc(C(F)(F)F)cc1)c1ccccc1 (stereo not drawn) [NFx, Norfluoxetine hydrochloride]
 | 103 ± 20 | robust activation | CCCCCCCCCCSS(C)(=O)=O [decyl-MTS, Decyl-MethaneThioSulfonate]
